The source of these data is patent US11820975B2, “Human blood brain barrier model” (National Research Council of Canada, priority 2014, dated 2023).

The test system of data set [1] is AF-iPSC-BECs. The format is in vitro ADME, human. The following applies: AF-iPSC-BECs vs. HBMECs (Cell Systems), FIG. 6C.
In another data set the test system is AF-iPSC-derived neurons. The data set is classed as cell-based, human.
For data set [2], the system named is AF-iPSC-BECs. The format is cell-based, human. To be noted: BBB model cultured with the agent; ACMx2 for 24 hours; FIG. 7A-B.

For the compound `O=C([O-])c1ccccc1-c1c2ccc(=O)cc-2oc2cc([O-])ccc12.[Na+].[Na+]` [Sodium fluorescein], the “Sodium fluorescein permeability of AF-iPSC-BECs compared with HBMECs” value in the data set with AF-iPSC-BECs [1] is recorded as “significantly lower”. As to `NC1=N[C@H](O)[C@H]2[C@H]3O[C@]4(O)O[C@@H]([C@@H](O)[C@@]2(N1)[C@@H]4O)[C@]3(O)CO` [TTX, tetrodotoxin], the “Effect on spiking activity” value in the data set with AF-iPSC-derived neurons is recorded as “eliminated spiking activity”. As to `C[C@]12CCC(=O)C=C1CC[C@@H]1[C@@H]2[C@@H](O)C[C@@]2(C)[C@H]1CC[C@]2(O)C(=O)CO` [hydrocortisone], in the data set with AF-iPSC-BECs [2], the “Change in TEER value” is “significant increase”.
